Measurements as given in patent US7786171B2, “Amide derivatives as positive allosteric modulators and methods of use thereof” (Abbott Laboratories, priority 2008, dated 2010).

Assays:
[1] = molecular target: T1, human α7 NNR (Homo sapiens, UniProt P36544); experiment: Two-electrode voltage-clamp in Xenopus laevis oocytes, potentiation of ACh-evoked α7 currents; format: cell-based; conditions: for Voltage-Clamp in Xenopus laevis Oocytes % max (degree of normalized potentiation): 0.1 mM ACh, normalized to reference PAM at 10 μM = 100%, ACh alone = 0%; for EC50: potentiation of 0.1 mM ACh-evoked α7 currents
T1 construct: expressed in transfected cells; host or cells: Xenopus laevis oocytes (cRNA injection)
T1 sequence (P36544 23-502): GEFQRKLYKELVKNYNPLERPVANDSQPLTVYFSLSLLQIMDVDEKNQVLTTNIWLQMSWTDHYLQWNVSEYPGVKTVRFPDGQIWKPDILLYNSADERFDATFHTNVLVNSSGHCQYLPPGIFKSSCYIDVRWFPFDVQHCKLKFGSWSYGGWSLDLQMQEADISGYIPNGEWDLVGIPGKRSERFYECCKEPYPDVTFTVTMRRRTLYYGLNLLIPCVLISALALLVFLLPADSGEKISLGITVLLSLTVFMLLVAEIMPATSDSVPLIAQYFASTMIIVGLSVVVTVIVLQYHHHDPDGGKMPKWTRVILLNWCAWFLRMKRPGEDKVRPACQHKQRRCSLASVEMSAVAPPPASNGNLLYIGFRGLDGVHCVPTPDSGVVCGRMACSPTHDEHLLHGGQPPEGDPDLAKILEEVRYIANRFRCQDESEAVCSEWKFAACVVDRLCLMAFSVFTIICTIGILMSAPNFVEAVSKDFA
Protocol: X. laevis oocytes were prepared for electrophysiological experiments as described in the literature (see for example. Briggs, C. A. el al, Neuropharmacology. 1995. 34: 583-590; Briggs, C. A. et al., Neuropharmacology, 1998, 37: 1095-1102, which are incorporated herein by reference). In brief, three to four lobes from ovaries of female adult X. laevis frogs were removed and defolliculated after treatment with collagenase type 1A (2 mg/mL; Sigma) prepared in low-Ca^2+ Barth's solution (90 mM NaCl, 1.0 mM KCl, 0.66 mM NaNO3, 2.4 mM NaHCO3, 10 mM HEPES, 2.5 mM sodium pyruvate, 0.82 mM MgCl2, and 0.5% (v/v) penicillin-streptomycin solution, pH=7.55, Sigma) for about 1.5 hours to about 2 hours at about 18° C. under constant agitation to obtain isolated oocytes.
The isolated oocytes were injected with about 4 ng to about 6 ng of human α7 NNR cRNA, kept at about 18° C. in a humidified incubator in modified Barth's solution (90 mM NaCl, 1.0 mM KCl, 0.66 mM NaNO3, 2.4 mM NaHCO3, 10 mM HEPES, 2.5 mM sodium pyruvate, 0.74 mM CaCl2, 0.82 mM MgCl2, 0.5% (v/v) penicillin-streptomycin solution, pH 7.55) and used about 2 to 7 days after injection. Responses were measured by two-electrode voltage clamp using a Parallel Oocyte Electrophysiology Test Station (Abbott, Abbott Park, Ill.) (see for example, Trumbull, J. D., et al., Receptors Channels, 2003, 9: 19-28, which is incorporated herein by reference). During recordings, the oocytes were bathed in Ba^2+-OR2 solution (90 mM NaCl, 2.5 mM KCl, 2.5 mM BaCl2, 1.0 mM MgCl2, 5.0 mM HEPES, and 0.0005 mM atropine, pH 7.4) to prevent activation of Ca^2+-dependent currents and held at −60 mV at room temperature (about 20° C.). Test compounds were pre-applied alone for […] and subsequently in the presence of 0.1 mM acetylcholine (ACh) as the agonist. The data were expressed as percentage potentiation of the acetylcholine-evoked current normalized to the response of reference PAM (at 10 μM, N′-[(2Z)-3-(2,2-difluoro-1,3-benzodioxol-5-yl)-5-methyl-1,3-thiazol-2(3 H)-ylidene]-N,N-dimethylurea) taken as 100% and the response to submaximum ACh without any PAM as 0%.

[2] = molecular target: T2, σ1 receptors (Homo sapiens, UniProt Q99720); experiment: Sigma receptor binding assay, σ1 ([3H](+)pentazocine displacement, Jurkat cells); conditions: test compound 10 μM
T2 construct: The origin of the (σ1 and σ2 receptors were Jurkat cells and rat cerebral cortex, respectively); endogenous in cells; host or cells: Jurkat cells
T2 sequence (Q99720 whole entry): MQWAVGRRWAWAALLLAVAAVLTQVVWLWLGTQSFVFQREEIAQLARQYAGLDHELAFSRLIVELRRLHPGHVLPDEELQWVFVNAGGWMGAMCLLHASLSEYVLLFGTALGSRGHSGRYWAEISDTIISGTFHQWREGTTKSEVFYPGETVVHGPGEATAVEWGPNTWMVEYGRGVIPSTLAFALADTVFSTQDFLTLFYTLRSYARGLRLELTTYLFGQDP
Protocol: (§1) Sigma receptors are binding sites that interact with several psychoactive agents. Inhibition of specific binding of known ligands to sigma receptors (σ1 and σ2) was used to determine the selectivity of test compounds. The assays were performed as described previously in the literature (non-selective σ: Shirayama, Y., et al. Eur. J. Pharmacol. (1993), 237: 117-126. σ1: Ganapathy, M. E., et al. J. Pharmacol. Exp. Ther. (1999) 289: 251-260. σ2: Bowen, M. D., et al. Mol. Neuropharmacol. (1993) 3: 117-126.). The origin of the non-selective a receptors was rat cerebral cortex. The origin of the (σ1 and σ2 receptors were Jurkat cells and rat cerebral cortex, respectively.
(§2) Affinity for the receptors was determined by competitive displacement of specific ligands (8 nM of [^3H] 1,3-di(2-tolyl)guanidine for non-selective σ, 8 nM of [^3H](+)pentazocine for σ1 and 5 nM of [^3H]1,3-di(2-tolyl)guanidine for σ2) by test compounds. Nonspecific binding was determined by addition of an excess of an unlabelled binder (10 μM haloperidol).
(§3) The results are expressed as a percent inhibition of control specific binding (100−((measured specific binding/control specific binding)×100)) obtained in the presence of test compound (10 μM) as shown in Table 1. In addition, Table 1 includes data for the selected compounds from the voltage-clamp in Xenopus laevis oocytes assay.

[3] = molecular target: T3, σ2 receptors (Rattus norvegicus, UniProt Q5U3Y7); experiment: Sigma receptor binding assay, σ2 ([3H]1,3-di(2-tolyl)guanidine displacement); conditions: test compound 10 μM; rat cerebral cortex
T3 construct: The origin of the (σ1 and σ2 receptors were Jurkat cells and rat cerebral cortex, respectively); from tissue; host or cells: rat cerebral cortex
T3 sequence (Q5U3Y7 1-176): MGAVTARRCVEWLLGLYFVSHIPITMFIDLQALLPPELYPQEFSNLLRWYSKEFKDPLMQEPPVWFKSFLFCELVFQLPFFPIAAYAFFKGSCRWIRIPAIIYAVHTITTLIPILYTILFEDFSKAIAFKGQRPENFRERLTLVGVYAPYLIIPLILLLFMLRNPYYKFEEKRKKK
Protocol: as §1, §2, §3

[4] = system: non-selective σ receptors; experiment: Sigma receptor binding assay, non-selective σ ([3H]1,3-di(2-tolyl)guanidine displacement); conditions: test compound 10 μM; rat cerebral cortex
Protocol: as §1, §2, §3

[5] = system: formalin-induced nociceptive behavior; experiment: Formalin-induced persistent nociceptive behavior assay; format: in vivo; conditions: mice; 10 mg/kg subcutaneously 10 minutes prior to formalin; phase 2, 20-45 minutes post formalin
Protocol: Nociception was assessed using the formalin test. The mice were placed in open plexiglass observation chambers for 30 minutes to allow them to acclimate to their surroundings: then they were removed for formalin administration. Mice were gently restrained while the dorsum of the hind paw was injected with 20 μL of 2.5% formalin into the plantar surface of the right hind paw with a 30-gauge needle. The animals were returned to the chambers and nociceptive behavior was observed immediately after formalin injection. Mirrors were placed in each chamber to enable unhindered observation. Nociceptive behavior was quantified as the time licking the injected paw for continuous 5 minutes (phase 1) and 20-45 minutes (phase 2), following formalin injection. Formalin-induced flinching/licking behavior was biphasic. The initial acute phase (phase 1.0-5 minutes) was followed by a relatively short quiescent period, which was then followed by a prolonged tonic response (phase 2, 20-45 minutes).

[6] = system: sensory gating T:C ratio; experiment: Sensory gating deficit in DBA/2 mice (N40 gating) assay; format: in vivo; conditions: dose 0.01 μmol/kg
Description: Sensory gating is a basic central nervous system function that facilitates attending to important stimuli, and ignoring irrelevant background noise. A practical example of sensory gating is the ability to follow a conversation at a loud party. An experimental measure of sensory gating is the suppression of brainwave (evoked potential) responding to repetitive auditory stimuli. Schizophrenic patients can not suppress responding to repetitive stimuli, and are therefore considered to have sensory gating deficiencies.
DBA/2 mice (20-25 g, 8-10 week, Harlan) were used for gating experiments and handled in accordance with approved Association for Assessment and Accreditation of Laboratory Animal Care procedures. Mice were given food and water ad libitum and maintained on a 12-hour light/dark cycle (lights on at 0600 hours).
The surgical techniques employed were similar to those previously described (Connolly P M, et al. (2003) Brain Res 992(1):85-95). […]
To obtain EEG and evoked potentials (EPs), unanesthetized mice were recorded in acoustically isolated chambers (Med Associates). EEG biosignals were recorded from freely moving mice using flexible cable tethers and electrical swivels (Plastics One) and amplified with differential AC amplifiers (Grass Instrument Division, Astro-Med, West Warwick, R.I. USA). […]

[7] = molecular target: α7 NNRs (Homo sapiens, UniProt P36544); conditions: IMR-32 cells
Sequence of α7 NNRs (P36544 23-502): as the sequence (P36544 23-502) above
Protocol: Although cell types such as IMR-32 neuroblastoma and neurons are known to contain several nicotinic receptor subunits, α7 selective agonists in the present assay selectively stimulate calcium responses only in the presence of PAMs. Any suitable selective α7 agonist can be used.
IMR-32 neuroblastoma cells (ATCC) were grown to confluency in 162 cm^2 tissue culture flasks in minimum essential media supplemented with 10% fetal bovine serum and 1 mM sodium pyruvate, 0.1 mM non-essential amino acids and 1% antibiotic-antimycotic. […]
Calcium flux was measured using a calcium-3 assay kit (Molecular Devices, Sunnyvale, Calif.) or Fluo-4 (Invitrogen, Carlsbad, Calif.). […] Fluorescence measurements were read simultaneously from all the wells by a Fluorometric Imaging Plate Reader (FLIPR) at an excitation wavelength of 480 nm and an emission wavelength of 520 nm. Baseline fluorescence was measured for the first 10 seconds at which 50 μL of 3× concentrations of modulator/test compounds were added to the cell plate and incubated for three to five minutes. The fluorescence intensity was captured every second for the first 1 minute followed by every 2-5 seconds for an additional two to four minutes. This procedure was followed by 50 μL of 4× concentration of agonist and readings were taken for a period of three to five minutes as described above. […]

| Voltage-Clamp in Xenopus laevis Oocytes % max (degree of normalized potentiation) [1] | EC50 [1] | inhibition at 10 µM [2] | inhibition at 10 µM [3] | SMILES | % Inhibition of Binding at 10 μM σ [4] | reduction in licking duration (nociceptive behavior), phase 2 [5] | reduction of T:C (test:conditioned) ratios compared to vehicle [6] | calcium response to agonist in the presence of an allosteric modulator [7] |
| --- | --- | --- | --- | --- | --- | --- | --- | --- |
| 61% | 3700 nM |  |  | O=C(NCc1cccc(-n2cccn2)c1)c1ccc(SC(F)(F)F)cc1 [Example 12, N-[3-(1H-pyrazol-1-yl)benzyl]-4-[(trifluoromethyl)thio]benzamide] |  |  |  |  |
| 94% | 180 nM | 8% | -1% | CN(C)c1ccc(CNC(=O)c2ccc(SC(F)(F)F)cc2)cc1 [Example 17, N-[4-(dimethylamino)benzyl]-4-[(trifluoromethyl)thio]benzamide] |  |  |  |  |
| 120% | 5400 nM |  |  | Nc1ccc(CNC(=O)c2ccc(SC(F)(F)F)cc2)cc1 [Example 19, N-(4-aminobenzyl)-4-[(trifluoromethyl)thio]benzamide] | 6% |  |  |  |
| 115% | 1200 nM | 21% | -4% | CNc1ccc(CNC(=O)c2ccc(SC(F)F)cc2)cc1 [Example 22, 4-[(difluoromethyl)thio]-N-[4-(methylamino)benzyl]benzamide] |  |  |  |  |
| 2% | > 10000 nM | 84% | 34% | O=C(Cc1ccc(NCC2CC2)cc1)Nc1ccc(SC(F)F)cc1 [Example 43, 2-{4-[(cyclopropylmethyl)amino]phenyl}-N-{4-[(difluoromethyl)thio]phenyl}acetamide] |  |  |  |  |
|  |  |  |  | CCN1C[C@]2(COC(=O)c3ccccc3N3C(=O)C[C@H](C)C3=O)CC[C@H](OC)[C@@]34[C@@H]5C[C@H]6[C@H](OC)[C@@H]5[C@](O)(C[C@@H]6OC)[C@@](O)([C@@H](OC)[C@H]23)[C@@H]14 [methyllycaconitine] |  |  |  | abolished the response |

| SMILES | Voltage-Clamp in Xenopus laevis Oocytes % max (degree of normalized potentiation) [1] | EC50 [1] | inhibition at 10 µM [2] | inhibition at 10 µM [3] | % Inhibition of Binding at 10 μM σ [4] | reduction in licking duration (nociceptive behavior), phase 2 [5] | reduction of T:C (test:conditioned) ratios compared to vehicle [6] | calcium response to agonist in the presence of an allosteric modulator [7] |
| --- | --- | --- | --- | --- | --- | --- | --- | --- |
| CNc1ccc(CNC(=O)c2ccc(SC(F)(F)F)cc2)cc1 [Example 20, N-[4-(methylamino)benzyl]-4-[(trifluoromethyl)thio]benzamide] | 99% | 97 nM |  |  | 39% | 68% | 23.7±8.9% |  |
